Reference: patent US7141660B2, “Genes encoding a nystatin polyketide synthase and their manipulation and utility” (Sinvent AS, priority 2000, dated 2006)

Tested on: Candida albicans
Test: bioassay for antifungal activity against Candida albicans
Format: cell-based
Details: for Activity: Table 5, products of S. noursei nysC mutants, graded against nystatin of wild type (normal)
Method: Preliminary analysis of the compounds produced by the S. noursei ERD44 and ERD48 was carried out. It was shown that a heptaenic compound produced by the ERD44 mutant has high antifungal activity against Candida albicans, an organism used in tests for antifungal activity. At this point it is not possible to accurately assay the activity of this compound (tentatively named S44), because it is not yet properly purified, and its exact concentration is difficult to estimate. […] This probably reflects the different states of modifications of the macrolactone ring by i.e. glycosylation at C19, hydroxylation at C10, or oxidation of the methyl group at C16. This could have been expected, since reduction of the macrolactone ring size most probably leads to the lower affinity of the modifying enzymes towards the new substrate.
Antifungal activity of the S48 mixture was tested, and found to constitute approx. 10% of nystatin activity. It seems probable that only one of the compounds in the S48 mixture produced by ERD48, which is fully decorated by the ring-modifying enzymes, is responsible for the antifungal activity detected. Thus, relative antifungal activity of this compound is impossible to assess prior to its purification Some of the […] antibiotics are known to have antibacterial, as well as antifungal activity (Ciftci, et al., J. Antibiot, v. 37: 876–884, 1984). It is thus possible that hexaenic compounds produced by the ERD48 mutant can be used for production of antibacterial agents The changes in the NysC protein leading to production of new polyene compounds in ERD44 and ERD48 mutants, along with the predicted structures of their macrolactone rings are presented in FIG. 5.
The recombinant S.noursei strain selected after this procedure was designated NPR1.1 The S. noursei NPR1.1 recombinant strain was shown by Southern blot analysis to contain the desired deletion in the DH8-coding sequence of nysC. […] The relative mobility of these compounds differed from nystatin, and no UV spectra characteristic for nystatin could be detected in the extracts. […] However, the NPR1 mutant can be potentially useful for further manipulations with the nystatin PKS.

SMILES | Activity | antifungal activity against Candida albicans (result in words, unpurified compound or culture extracts) | antifungal activity compared to nystatin (rough estimates based on UV absorbance, compound not properly purified, concentration difficult to estimate)
CC1/C=C/C=C/C=C/C=C/C=C/C=C/C=C/C(O)CC2OC(O)(CC(O)CCCC(O)CC(O)CC(O)CC(=O)OC(C)[C@H](C)C1O)CC(O)C2C (stereo partly shown) [S44] | high | high | 4–5 times
C[C@@H]1[C@H](O)[C@@H](C)/C=C/C=C/CC/C=C/C=C/C=C/C=C/C(O[C@H]2O[C@H](C)[C@@H](O)[C@H](N)[C@@H]2O)CC2O[C@](O)(CC(O)C(O)CCC(O)CC(O)CC(O)CC(=O)O[C@H]1C)CC(O)C2C(=O)O (stereo partly shown) [nystatin] | normal |  | 
